What all share (type): binding
Test [1] has as its target T1, Recombinant human integrin ανβ3 (Homo sapiens, UniProt P05106+P06756).
T1 construct: purchased R&D Systems 3050-AV
The experiment in a line: Solid Phase Receptor Assay (SPRA) for ανβ3 function. The note with it: plate-bound human vitronectin; read-out: αvβ3 SPRA IC50. The procedure:
C. Solid Phase Receptor Assay (SPRA) for ανβ3 Function
(§1) Wells were washed 3 times with 150 μL TBS+ and then 150 μL of blocking buffer (TBS+ with 1% bovine serum albumin, Sigma A7906) was added. The plate was incubated for 1 hr at 37° C. and then washed 3× with TBS+ buffer. […] Compounds were diluted to 20 μM and then 1 μL was added to each well of the plate according to a standard template with each sample repeated in triplicate. After incubation for two hours at room temperature, the plate was washed 3× with 150 μL of TBS+ buffer. To each well, 50 μL of biotinylated anti-αν antibody (R&D Systems, BAF1219) at 0.5 μg/mL in TBS+/0.1% BSA were added and the plate covered and incubated for 1 hr at room temperature. After washing the plate 3× with 150 μL of TBS+ buffer, 50 μL of streptavidin-conjugated horseradish peroxidase (R&D Systems, DY998) diluted in TBS+ blocking buffer were added to the wells and the plate incubated for 20 min at room temperature. The plate was washed 3× with TBS+ buffer followed by 50 μL of TMB substrate (Sigma, T4444) added to each well in the dark and the plate was incubated for 25 min at room temperature. 25 μL of 1.0 M phosphoric acid was added as a stop solution and the plates were read at 450 nm using a Spectramax plate reader.

Test [2] concerns the target T2, Recombinant human integrin ανβ5 (Homo sapiens, UniProt P06756+P18084).
T2 construct: purchased R&D Systems 2528-AV
In words: Solid Phase Receptor Assay (SPRA) for ανβ5 function. The note with it: plate-bound human vitronectin; read-out: αvβ5 SPRA IC50. As to the method: D. Solid Phase Receptor Assay (SPRA) for ανβ5 Function
Wells were washed 3 times with 150 μL TBS+ and then 150 μL of blocking buffer (TBS+ with 1% bovine serum albumin, Sigma A7906) was added. The plate was incubated for 1 hr at 37° C. and then washed 3× with TBS+ buffer. […] Compounds were diluted to 20 μM and then 1 μL was added to each well of the plate according to a standard template with each sample repeated in triplicate. After incubation for two hours at room temperature, the plate was washed 3× with 150 μL of TBS+ buffer. To each well, 50 μl of biotinylated anti-αν antibody (R&D Systems, BAF1219) at 0.5 μg/mL in TBS+/0.1% BSA at 0.5 μg/mL were added and the plate covered and incubated for 1 hr at room temperature. After washing the plate 3 with 150 μL of TBS+ buffer, 50 μL of streptavidin-conjugated horseradish peroxidase (R&D Systems, DY998) diluted in TBS+ blocking buffer were added to the wells and the plate incubated for 20 min at room temperature. The plate was washed 3× with TBS+ buffer followed by 50 μL of TMB substrate (Sigma T4444) added to each well in the dark and the plate incubated for 5 min at room temperature. 25 μL of 1.0 M phosphoric acid was added as a stop solution and the plates were read at 450 nm using a Spectramax plate reader.

The target of test [3] is T3, Recombinant human integrin ανβ1 (Homo sapiens, UniProt P05556+P06756).
T3 construct: purchased R&D Systems 6579-AV
In words: Solid Phase Receptor Assay (SPRA) for ανβ1 function. The note with it: plate-bound human fibronectin; read-out: αvβ1 SPRA IC50. The procedure:
B. Solid Phase Receptor Assay (SPRA) for ανβ1 Function
as §1, with “μM and 1 μL” for “μM and then 1 μL”, “was washed 3 with 150” for “was washed 3× with 150”, “BAF1219) at 1 μg/mL in” for “BAF1219) at 0.5 μg/mL in”, “the plate incubated for” for “the plate was incubated for”

Test [4] addresses T4, Recombinant human integrin ανβ6 (Homo sapiens, UniProt P06756+P18564).
T4 construct: purchased R&D Systems 3817-AV
In words: Solid Phase Receptor Assay (SPRA) for ανβ6 function. The note with it: plate-bound human LAP; read-out: αvβ6 SPRA IC50. As to the method:
E. Solid Phase Receptor Assay (SPRA) for ανβ6 Function
Wells were washed 3 times with 150 μL TBS+, and then 150 μL of blocking buffer (TBS+ with 1% bovine serum albumin, Sigma A7906) was added. The plate was incubated for 1 hr at 37° C., and then washed 3× with TBS+ buffer. […] Compounds were diluted to 20 μM and then 1 μL was added to each well of the plate according to a standard template with each sample repeated in triplicate. After incubation for two hours at room temperature, the plate was washed 3× with 150 μL of TBS+ buffer. To each well, 50 μL of biotinylated anti-αν antibody (R&D Systems, BAF1219) at 0.5 μg/mL in TBS+/0.1% BSA were added and the plate was covered and incubated for 1 hr at room temperature. After washing the plate 3× with 150 μL of TBS+ buffer, 50 μL of streptavidin-conjugated horseradish peroxidase (R&D Systems, DY998) diluted in TBS+ blocking buffer were added to the wells and the plate incubated for 20 min at room temperature. The plate was washed 3× with TBS+ buffer followed by 50 μL of TMB substrate (Sigma T4444) added to each well in the dark and the plate incubated for 10 min at room temperature. 25 μL of 1.0 M phosphoric acid was added as a stop solution and the plates were read at 450 nm using a Spectramax plate reader.

The target in test [5] is T5, Recombinant human integrin ανβ8 (Homo sapiens, UniProt P06756+P26012).
T5 construct: purchased R&D Systems 4135-AV
In words: Solid Phase Receptor Assay (SPRA) for ανβ8 function. The note with it: plate-bound human LAP; read-out: αvβ8 SPRA IC50. The procedure:
F. Solid Phase Receptor Assay (SPRA) for ανβ8 Function
Wells were washed 3 times with 150 μL TBS+ and then 150 μL of blocking buffer (TBS+ with 1% bovine serum albumin, Sigma A7906) was added. The plate was incubated for 1 hr at 37° C. and then washed 3× with TBS+. […] Compounds were diluted to 20 μM and 1 μL was added to each well of the plate according to a standard template with each sample repeated in triplicate. After incubation for two hours at room temperature, the plate was washed 3× with 150 μL of TBS+. To each well, 50 μL of biotinylated anti-αν antibody (R&D Systems, BAF1219) at 1 μg/mL in TBS+/0.1% BSA were added and the plate was covered and incubated for 1 hr at room temperature. After washing the plate 3× with 150 μL. of TBS+ buffer, 50 μL of streptavidin-conjugated horseradish peroxidase (R&D Systems, DY998) diluted in TBS+ blocking buffer were added to the wells and the plate incubated for 20 min at room temperature. The plate was washed 3× with TBS+ followed by 50 μL of TMB substrate (Sigma T4444) added to each well in the dark and the plate incubated for 10 min at room temperature. 25 μL of 1.0 M phosphoric acid was added as a stop solution and the plates were read at 450 nm using a Spectramax plate reader.

For test [6], the target named is T6, Recombinant human integrin α5β1 (Homo sapiens, UniProt P05556+P08648).
T6 construct: purchased R&D Systems 3230-A5
The experiment in a line: Solid Phase Receptor Assay (SPRA) for α5β1 function. The conditions noted are these: plate-bound human fibronectin. The procedure:
A. Solid Phase Receptor Assay (SPRA) for α5β1 Function
Wells were washed 3 times with 150 μL TBS+ and then 150 μL of blocking buffer (TBS+ with 1% bovine serum albumin, Sigma A7906) was added. The plate was incubated for 1 hr at 37° C. and then washed 3× with TBS+ buffer. […] Compounds were diluted to 20 μM and then 1 μL was added to each well of the plate according to a standard template with each sample repeated in triplicate. After incubation for two hours at room temperature, the plate was washed 3× with 150 μL of TBS+ buffer. To each well, 50 μL of biotinylated anti-α5 antibody (R&D Systems, BAF1864) at 0.5 μg/mL in TBS+/0.1% BSA were added and the plate covered and incubated for 1 hr at room temperature. After washing the plate 3× with 150 μL of TBS+ buffer, 50 μL of streptavidin-conjugated horseradish peroxidase (R&D Systems, DY998) diluted in TBS+ blocking buffer were added to the wells and the plate incubated for 20 min at room temperature. The plate was washed 3× with TBS+ buffer followed by 50 μL of room temperature TMB substrate (Sigma, T4444) added to each well in the dark and the plate incubated for 25 min at room temperature. 25 μL of 1.0 M phosphoric acid was added as a stop solution and the plates were read at 450 nm using a Spectramax plate reader.

Counter-ions that a name gives are not always drawn.

T4 sequence (P06756 31-992 limits assumed): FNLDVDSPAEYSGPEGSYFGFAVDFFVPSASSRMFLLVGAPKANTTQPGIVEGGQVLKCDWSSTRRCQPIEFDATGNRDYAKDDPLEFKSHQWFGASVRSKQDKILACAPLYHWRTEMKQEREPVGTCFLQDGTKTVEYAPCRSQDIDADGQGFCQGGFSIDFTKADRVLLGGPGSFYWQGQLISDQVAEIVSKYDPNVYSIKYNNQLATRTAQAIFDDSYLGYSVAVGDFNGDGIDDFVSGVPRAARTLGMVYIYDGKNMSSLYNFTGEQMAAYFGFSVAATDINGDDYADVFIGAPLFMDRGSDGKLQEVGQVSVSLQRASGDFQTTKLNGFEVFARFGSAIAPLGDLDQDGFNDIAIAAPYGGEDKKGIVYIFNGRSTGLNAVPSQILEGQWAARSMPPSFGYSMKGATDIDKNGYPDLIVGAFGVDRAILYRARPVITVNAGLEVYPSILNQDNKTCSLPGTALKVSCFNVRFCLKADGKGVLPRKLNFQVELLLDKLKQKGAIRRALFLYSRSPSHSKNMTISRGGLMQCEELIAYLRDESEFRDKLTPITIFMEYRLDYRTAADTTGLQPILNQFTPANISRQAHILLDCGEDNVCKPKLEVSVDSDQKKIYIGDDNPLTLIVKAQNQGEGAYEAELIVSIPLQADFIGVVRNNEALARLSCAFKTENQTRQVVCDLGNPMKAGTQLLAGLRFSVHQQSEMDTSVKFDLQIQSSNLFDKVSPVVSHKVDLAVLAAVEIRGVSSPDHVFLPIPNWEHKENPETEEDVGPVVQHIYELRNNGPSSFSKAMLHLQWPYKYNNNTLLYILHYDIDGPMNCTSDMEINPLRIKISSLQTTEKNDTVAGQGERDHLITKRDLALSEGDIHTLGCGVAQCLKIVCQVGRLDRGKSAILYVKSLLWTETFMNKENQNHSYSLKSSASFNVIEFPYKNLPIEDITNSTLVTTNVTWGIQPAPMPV
T4 sequence (P18564 22-707 limits assumed): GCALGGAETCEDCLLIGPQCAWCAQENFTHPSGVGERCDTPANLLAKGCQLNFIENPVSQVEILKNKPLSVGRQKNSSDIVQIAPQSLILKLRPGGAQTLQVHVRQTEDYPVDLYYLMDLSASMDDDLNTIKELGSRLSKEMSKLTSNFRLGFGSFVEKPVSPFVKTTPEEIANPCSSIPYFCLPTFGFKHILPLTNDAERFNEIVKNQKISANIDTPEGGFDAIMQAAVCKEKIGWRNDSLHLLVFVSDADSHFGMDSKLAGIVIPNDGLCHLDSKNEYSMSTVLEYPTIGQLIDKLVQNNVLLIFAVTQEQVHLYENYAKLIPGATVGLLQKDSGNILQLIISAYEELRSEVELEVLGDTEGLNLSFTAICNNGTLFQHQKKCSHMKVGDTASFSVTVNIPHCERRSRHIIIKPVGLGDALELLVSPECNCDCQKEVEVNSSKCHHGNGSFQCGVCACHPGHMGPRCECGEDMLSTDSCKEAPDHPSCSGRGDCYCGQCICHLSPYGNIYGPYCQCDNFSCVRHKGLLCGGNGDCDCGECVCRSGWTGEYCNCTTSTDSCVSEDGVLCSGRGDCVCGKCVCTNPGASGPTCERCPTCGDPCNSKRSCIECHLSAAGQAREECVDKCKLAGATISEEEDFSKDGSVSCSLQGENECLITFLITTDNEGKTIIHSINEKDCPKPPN
T5 sequence (P06756 31-992 limits assumed): as the sequence (P06756 31-992 limits assumed) above
T5 sequence (P26012 43-684 limits assumed): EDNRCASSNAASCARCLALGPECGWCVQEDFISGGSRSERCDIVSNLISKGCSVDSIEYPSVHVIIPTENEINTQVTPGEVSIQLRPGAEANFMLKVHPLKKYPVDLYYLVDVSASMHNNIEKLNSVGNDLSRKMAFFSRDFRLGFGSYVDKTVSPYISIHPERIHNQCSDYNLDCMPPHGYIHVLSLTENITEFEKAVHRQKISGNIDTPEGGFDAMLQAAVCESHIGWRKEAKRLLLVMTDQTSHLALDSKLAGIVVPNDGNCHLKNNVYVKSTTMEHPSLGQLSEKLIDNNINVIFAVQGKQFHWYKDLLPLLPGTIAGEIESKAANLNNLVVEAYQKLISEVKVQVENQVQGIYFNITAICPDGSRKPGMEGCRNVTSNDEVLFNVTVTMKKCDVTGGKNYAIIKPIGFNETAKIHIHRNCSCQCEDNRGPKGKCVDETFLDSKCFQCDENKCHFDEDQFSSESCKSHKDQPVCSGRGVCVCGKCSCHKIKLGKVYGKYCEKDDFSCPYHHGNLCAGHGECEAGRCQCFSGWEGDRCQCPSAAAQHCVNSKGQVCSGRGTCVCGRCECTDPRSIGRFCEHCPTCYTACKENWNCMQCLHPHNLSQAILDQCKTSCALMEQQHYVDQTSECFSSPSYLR
T3 sequence (P06756 31-992 limits assumed): as the sequence (P06756 31-992 limits assumed) above
T3 sequence (P05556 21-728 limits assumed): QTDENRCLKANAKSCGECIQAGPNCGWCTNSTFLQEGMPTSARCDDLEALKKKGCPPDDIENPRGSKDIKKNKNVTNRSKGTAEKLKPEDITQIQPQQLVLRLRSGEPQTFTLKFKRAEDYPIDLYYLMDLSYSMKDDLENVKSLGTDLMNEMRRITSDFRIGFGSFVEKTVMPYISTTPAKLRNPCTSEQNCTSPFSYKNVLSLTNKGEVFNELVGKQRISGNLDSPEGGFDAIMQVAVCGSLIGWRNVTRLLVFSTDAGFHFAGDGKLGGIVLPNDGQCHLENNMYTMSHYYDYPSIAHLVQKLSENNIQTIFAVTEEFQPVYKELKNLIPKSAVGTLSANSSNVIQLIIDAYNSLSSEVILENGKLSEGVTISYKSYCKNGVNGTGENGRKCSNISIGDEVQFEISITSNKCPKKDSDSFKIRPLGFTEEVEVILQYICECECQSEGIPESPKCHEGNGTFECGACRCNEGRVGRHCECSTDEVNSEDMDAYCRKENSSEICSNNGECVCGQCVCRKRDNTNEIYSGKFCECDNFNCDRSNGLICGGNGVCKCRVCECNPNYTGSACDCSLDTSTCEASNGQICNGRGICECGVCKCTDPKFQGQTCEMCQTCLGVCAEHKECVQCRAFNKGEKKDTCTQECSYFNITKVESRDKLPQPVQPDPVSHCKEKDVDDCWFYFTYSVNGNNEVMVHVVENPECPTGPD
T1 sequence (P06756 31-992 limits assumed): as the sequence (P06756 31-992 limits assumed) above
T1 sequence (P05106 27-718 limits assumed): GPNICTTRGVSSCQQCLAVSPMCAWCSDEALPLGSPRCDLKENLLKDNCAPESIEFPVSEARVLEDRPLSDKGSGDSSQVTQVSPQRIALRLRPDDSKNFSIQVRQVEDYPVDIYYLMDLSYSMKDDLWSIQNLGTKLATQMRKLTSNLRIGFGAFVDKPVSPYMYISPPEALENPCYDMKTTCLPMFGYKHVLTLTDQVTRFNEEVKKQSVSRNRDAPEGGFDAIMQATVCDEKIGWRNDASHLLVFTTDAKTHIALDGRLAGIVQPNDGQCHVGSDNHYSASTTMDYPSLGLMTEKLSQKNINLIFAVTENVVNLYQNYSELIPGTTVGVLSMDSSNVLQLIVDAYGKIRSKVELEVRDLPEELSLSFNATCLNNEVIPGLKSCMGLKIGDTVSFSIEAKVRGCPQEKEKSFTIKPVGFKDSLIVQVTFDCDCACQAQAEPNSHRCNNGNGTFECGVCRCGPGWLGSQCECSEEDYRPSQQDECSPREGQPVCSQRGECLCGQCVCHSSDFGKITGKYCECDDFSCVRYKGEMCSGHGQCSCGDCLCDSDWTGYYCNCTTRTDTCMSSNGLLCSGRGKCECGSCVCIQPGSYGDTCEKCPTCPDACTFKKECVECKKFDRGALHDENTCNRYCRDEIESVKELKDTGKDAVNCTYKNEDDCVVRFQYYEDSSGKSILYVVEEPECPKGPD
T2 sequence (P06756 31-992 limits assumed): as the sequence (P06756 31-992 limits assumed) above
T2 sequence (P18084 24-719 limits assumed): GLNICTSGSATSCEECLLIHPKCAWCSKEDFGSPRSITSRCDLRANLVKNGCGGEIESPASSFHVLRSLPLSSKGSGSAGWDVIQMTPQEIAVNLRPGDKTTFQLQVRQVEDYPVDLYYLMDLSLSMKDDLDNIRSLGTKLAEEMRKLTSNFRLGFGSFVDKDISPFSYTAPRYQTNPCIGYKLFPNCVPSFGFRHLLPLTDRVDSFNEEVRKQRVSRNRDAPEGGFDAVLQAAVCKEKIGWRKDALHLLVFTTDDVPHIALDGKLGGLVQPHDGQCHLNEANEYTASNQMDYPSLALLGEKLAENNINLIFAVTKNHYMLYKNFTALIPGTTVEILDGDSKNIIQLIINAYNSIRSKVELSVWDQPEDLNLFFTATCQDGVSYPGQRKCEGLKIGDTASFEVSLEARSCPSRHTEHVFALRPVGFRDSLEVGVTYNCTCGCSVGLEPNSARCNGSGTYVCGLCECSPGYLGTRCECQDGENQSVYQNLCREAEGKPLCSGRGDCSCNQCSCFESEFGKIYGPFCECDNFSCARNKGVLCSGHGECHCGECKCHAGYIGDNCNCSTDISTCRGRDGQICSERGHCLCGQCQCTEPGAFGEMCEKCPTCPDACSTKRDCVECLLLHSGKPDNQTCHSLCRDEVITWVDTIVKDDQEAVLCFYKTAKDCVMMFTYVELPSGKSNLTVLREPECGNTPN

Regarding `Cn1nc(CC(CC(=O)O)c2cc(C#N)cc(C(F)(F)F)c2)cc1OCCc1ccc2c(n1)NCCC2` (stereo not drawn) [Example 12, 3-(3-cyano-5-(trifluoromethyl)phenyl)-4-(1-methyl-5-(2-(5,6,7,8-tetrahydro-1,8-naphthyridin-2-yl)ethoxy)-1H-pyrazol-3-yl)butanoic Acid], the IC50 in test [1] was found to be 0.0043 µM; in test [2], 0.0001 µM; in test [3] it was 0.0045 µM; in test [4], 0.027 µM; in test [5], 0.014 µM.

With `CC(C)Oc1ccc(C(C)(C)C)cc1C(CC(=O)O)Cc1cc(OCCc2ccc3c(n2)NCCC3)n(C)n1` (stereo not drawn) [Example 35, 3-(5-tert-butyl-2-isopropoxy-phenyl)-4-[1-methyl-5-[2-(5,6,7,8-tetrahydro-1,8-naphthyridin-2-yl)ethoxy]pyrazol-3-yl]butanoic Acid Trifluoroacetate], the IC50 was found to be 0.0076 µM in test [3], 1.1 µM in test [4], 0.12 µM in test [5] and 0.075 µM in test [6].

One may read the IC50 as the concentration at which inhibition is half-maximal.

(Values after US11306084B2, “Integrin antagonists” (Saint Louis University, priority 2016, dated 2022).)
